Assay results as given in ChEMBL document CHEMBL5291721, “A preclinical secondary pharmacology resource illuminates target-adverse drug reaction associations of marketed drugs” (Nat Commun, 2023).

Experiments:
[1] = molecular target: Acetylcholinesterase (Homo sapiens, UniProt P22303); assay type: functional
[2] = molecular target: T1, Alpha-2A adrenergic receptor (Homo sapiens, UniProt P08913)
T1 sequence (P08913 whole entry): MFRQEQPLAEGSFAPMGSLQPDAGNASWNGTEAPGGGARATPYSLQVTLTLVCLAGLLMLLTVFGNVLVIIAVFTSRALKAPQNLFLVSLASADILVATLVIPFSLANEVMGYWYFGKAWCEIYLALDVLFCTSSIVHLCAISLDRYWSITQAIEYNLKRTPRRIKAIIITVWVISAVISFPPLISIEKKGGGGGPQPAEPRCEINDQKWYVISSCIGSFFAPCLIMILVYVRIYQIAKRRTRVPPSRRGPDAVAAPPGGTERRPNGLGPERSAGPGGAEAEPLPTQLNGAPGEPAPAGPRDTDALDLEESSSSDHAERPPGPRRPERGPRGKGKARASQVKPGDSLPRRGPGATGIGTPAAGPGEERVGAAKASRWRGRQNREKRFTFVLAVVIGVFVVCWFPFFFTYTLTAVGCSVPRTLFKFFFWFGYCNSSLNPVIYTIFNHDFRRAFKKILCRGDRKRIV

[3] = molecular target: T2, Muscarinic acetylcholine receptor M2 (Homo sapiens, UniProt P08172)
T2 sequence (P08172 whole entry): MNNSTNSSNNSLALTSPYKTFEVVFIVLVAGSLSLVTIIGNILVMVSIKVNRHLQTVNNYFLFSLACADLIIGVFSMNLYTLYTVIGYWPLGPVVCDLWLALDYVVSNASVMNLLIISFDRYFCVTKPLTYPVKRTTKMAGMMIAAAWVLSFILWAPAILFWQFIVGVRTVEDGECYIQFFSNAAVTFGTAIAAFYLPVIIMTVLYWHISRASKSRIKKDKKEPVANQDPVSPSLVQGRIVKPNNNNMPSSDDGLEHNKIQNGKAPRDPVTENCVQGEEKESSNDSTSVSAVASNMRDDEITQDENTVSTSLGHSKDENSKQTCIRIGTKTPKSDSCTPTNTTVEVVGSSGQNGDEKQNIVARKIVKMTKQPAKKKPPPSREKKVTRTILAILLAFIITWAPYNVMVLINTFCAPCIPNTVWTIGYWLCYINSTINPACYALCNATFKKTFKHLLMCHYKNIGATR

[4] = molecular target: Prothrombin (Homo sapiens, UniProt P00734); assay type: functional
[5] = molecular target: Histamine H3 receptor (Homo sapiens, UniProt Q9Y5N1)
Histamine H3 receptor, sequence (Q9Y5N1 whole entry): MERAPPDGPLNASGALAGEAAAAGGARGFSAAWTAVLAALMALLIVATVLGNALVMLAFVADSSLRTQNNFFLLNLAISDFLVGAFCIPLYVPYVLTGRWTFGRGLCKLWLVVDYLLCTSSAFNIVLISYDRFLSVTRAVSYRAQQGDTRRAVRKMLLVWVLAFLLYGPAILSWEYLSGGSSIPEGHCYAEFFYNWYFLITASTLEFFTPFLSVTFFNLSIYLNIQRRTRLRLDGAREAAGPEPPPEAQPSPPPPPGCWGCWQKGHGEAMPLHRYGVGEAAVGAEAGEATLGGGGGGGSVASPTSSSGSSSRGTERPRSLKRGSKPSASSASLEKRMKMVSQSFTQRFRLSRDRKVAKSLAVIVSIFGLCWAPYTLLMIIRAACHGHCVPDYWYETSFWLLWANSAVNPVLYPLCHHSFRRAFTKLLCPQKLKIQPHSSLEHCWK

[6] = molecular target: T3, 5-hydroxytryptamine receptor 1A (Homo sapiens, UniProt P08908)
T3 sequence (P08908 whole entry): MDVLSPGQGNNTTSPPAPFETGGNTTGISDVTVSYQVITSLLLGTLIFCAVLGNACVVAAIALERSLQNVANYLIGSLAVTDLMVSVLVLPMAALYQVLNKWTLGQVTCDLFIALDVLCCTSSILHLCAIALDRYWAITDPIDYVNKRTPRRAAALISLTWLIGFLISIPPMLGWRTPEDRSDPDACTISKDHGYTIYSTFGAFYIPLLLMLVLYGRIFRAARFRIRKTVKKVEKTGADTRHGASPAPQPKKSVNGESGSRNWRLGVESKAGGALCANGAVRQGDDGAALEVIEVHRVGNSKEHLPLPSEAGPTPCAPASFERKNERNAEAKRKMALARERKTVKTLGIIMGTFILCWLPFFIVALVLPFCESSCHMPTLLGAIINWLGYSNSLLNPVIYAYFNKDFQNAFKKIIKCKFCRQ

[7] = molecular target: 5-hydroxytryptamine receptor 2B (Homo sapiens, UniProt P41595); assay type: functional, cell-based
5-hydroxytryptamine receptor 2B, sequence (P41595 whole entry): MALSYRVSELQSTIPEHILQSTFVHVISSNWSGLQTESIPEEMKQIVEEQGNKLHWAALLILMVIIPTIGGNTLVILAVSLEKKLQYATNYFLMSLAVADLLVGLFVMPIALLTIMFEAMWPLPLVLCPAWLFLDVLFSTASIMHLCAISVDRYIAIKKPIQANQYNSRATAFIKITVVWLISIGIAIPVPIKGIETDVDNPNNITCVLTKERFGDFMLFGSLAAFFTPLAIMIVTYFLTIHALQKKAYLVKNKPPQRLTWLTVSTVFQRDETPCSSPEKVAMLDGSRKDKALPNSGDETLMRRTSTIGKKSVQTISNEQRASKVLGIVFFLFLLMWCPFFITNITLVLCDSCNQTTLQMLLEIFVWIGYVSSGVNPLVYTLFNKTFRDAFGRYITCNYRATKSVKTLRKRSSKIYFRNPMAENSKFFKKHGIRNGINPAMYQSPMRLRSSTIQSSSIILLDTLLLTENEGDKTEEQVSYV

[8] = molecular target: T4, Amine oxidase [flavin-containing] A (Homo sapiens, UniProt P21397); assay type: functional
T4 sequence (P21397 whole entry): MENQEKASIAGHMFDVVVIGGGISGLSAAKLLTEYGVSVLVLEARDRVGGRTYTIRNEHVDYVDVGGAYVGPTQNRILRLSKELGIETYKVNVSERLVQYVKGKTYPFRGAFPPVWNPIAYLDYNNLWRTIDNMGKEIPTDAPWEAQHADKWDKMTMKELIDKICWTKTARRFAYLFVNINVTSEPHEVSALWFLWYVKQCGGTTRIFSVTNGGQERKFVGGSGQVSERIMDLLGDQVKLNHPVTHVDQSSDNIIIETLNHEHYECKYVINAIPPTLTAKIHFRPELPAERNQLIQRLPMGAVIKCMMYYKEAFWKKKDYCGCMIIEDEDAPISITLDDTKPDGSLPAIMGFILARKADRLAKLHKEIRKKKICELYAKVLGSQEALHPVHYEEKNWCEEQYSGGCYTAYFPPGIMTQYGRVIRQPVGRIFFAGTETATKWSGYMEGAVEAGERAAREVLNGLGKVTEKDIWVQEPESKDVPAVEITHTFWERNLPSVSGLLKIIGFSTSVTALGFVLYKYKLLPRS

[9] = molecular target: cGMP-inhibited 3',5'-cyclic phosphodiesterase 3A (Homo sapiens, UniProt Q14432); assay type: functional
cGMP-inhibited 3',5'-cyclic phosphodiesterase 3A, sequence (Q14432 whole entry): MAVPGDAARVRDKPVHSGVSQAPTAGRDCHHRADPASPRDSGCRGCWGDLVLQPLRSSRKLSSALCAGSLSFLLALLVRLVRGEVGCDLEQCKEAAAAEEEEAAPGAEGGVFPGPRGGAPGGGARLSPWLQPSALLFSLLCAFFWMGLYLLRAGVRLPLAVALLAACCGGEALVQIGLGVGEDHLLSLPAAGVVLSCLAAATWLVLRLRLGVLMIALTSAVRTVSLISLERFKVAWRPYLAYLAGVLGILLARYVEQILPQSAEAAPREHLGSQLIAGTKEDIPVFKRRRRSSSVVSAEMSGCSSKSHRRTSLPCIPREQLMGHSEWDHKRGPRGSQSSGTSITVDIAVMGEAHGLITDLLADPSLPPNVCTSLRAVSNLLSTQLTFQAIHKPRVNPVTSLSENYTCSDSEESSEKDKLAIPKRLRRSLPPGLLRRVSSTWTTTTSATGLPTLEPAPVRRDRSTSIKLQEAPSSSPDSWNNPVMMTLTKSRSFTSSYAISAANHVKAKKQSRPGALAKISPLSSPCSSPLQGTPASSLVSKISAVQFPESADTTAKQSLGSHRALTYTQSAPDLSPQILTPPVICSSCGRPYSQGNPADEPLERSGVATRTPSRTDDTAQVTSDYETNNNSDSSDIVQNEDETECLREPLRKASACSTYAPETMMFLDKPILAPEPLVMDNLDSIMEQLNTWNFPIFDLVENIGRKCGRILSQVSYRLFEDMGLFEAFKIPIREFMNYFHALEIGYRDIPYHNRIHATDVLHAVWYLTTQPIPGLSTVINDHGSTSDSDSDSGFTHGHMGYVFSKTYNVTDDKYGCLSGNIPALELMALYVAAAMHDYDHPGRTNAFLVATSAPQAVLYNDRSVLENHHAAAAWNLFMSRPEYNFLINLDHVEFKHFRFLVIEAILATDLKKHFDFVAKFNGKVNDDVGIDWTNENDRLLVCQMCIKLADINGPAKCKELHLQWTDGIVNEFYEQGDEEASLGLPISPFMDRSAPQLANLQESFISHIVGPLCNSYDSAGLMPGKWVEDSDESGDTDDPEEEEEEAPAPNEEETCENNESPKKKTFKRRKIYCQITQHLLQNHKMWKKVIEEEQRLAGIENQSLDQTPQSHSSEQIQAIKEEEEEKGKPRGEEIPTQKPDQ

[10] = molecular target: 3',5'-cyclic-AMP phosphodiesterase 4A (Homo sapiens, UniProt P27815); assay type: functional
3',5'-cyclic-AMP phosphodiesterase 4A, sequence (P27815 whole entry): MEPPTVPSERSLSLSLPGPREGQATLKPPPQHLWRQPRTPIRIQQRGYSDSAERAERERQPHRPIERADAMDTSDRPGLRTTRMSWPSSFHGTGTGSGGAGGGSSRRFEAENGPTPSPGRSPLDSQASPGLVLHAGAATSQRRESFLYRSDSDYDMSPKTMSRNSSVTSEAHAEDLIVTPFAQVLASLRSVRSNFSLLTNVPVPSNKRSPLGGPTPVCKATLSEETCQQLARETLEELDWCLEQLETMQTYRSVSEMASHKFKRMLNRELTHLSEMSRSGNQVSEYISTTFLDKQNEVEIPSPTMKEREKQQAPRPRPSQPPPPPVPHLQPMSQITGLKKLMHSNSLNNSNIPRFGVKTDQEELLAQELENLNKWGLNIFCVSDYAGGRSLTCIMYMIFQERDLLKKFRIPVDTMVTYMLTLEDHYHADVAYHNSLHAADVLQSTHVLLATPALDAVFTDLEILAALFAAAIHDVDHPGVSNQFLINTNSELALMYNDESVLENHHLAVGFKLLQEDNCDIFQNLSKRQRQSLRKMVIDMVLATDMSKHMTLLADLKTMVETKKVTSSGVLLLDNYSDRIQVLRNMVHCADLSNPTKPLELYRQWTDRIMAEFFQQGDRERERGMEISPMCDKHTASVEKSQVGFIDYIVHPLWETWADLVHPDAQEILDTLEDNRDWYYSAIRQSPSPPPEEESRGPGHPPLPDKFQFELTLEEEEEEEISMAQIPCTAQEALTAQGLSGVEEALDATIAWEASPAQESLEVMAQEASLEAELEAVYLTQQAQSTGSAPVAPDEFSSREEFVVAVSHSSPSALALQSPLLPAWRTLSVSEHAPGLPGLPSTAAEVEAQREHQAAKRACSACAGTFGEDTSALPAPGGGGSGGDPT

[11] = molecular target: Sodium-dependent dopamine transporter (Homo sapiens, UniProt Q01959)
Sodium-dependent dopamine transporter, sequence (Q01959 whole entry): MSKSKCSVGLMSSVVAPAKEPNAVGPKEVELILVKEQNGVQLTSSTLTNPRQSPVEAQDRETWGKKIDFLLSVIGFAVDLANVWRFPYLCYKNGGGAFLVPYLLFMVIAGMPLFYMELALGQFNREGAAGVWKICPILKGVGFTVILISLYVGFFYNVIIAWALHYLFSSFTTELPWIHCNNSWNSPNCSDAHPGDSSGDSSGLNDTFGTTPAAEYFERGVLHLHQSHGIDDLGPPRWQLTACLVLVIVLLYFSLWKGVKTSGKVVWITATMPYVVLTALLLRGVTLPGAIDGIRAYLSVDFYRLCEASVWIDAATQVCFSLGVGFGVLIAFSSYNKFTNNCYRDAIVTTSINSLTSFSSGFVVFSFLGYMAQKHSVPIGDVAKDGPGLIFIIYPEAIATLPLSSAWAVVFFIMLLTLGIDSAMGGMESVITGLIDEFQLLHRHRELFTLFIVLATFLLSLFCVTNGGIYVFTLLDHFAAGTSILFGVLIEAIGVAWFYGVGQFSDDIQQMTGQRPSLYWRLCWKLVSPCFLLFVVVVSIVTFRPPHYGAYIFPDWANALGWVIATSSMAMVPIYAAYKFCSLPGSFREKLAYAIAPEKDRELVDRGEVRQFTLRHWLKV

[12] = molecular target: T5, Thromboxane A2 receptor (Homo sapiens, UniProt P21731); assay type: functional, cell-based
T5 sequence (P21731 whole entry): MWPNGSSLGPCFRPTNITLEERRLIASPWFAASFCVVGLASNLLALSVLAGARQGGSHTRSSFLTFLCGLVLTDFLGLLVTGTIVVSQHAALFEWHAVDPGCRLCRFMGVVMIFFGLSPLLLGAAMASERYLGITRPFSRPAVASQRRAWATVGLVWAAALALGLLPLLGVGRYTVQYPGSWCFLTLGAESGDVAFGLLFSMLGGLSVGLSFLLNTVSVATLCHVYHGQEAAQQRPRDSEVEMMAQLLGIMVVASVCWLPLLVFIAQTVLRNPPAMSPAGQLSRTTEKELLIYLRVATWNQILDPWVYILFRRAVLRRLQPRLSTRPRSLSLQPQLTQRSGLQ

[13] = molecular target: T5, Thromboxane A2 receptor; assay type: functional, cell-based; remark: listed apart in the source
[14] = molecular target: Voltage-gated inwardly rectifying potassium channel KCNH2 (Homo sapiens, UniProt Q12809); assay type: functional
Note: assay procedure not described here.

Acetylcholinesterase, sequence (P22303 whole entry): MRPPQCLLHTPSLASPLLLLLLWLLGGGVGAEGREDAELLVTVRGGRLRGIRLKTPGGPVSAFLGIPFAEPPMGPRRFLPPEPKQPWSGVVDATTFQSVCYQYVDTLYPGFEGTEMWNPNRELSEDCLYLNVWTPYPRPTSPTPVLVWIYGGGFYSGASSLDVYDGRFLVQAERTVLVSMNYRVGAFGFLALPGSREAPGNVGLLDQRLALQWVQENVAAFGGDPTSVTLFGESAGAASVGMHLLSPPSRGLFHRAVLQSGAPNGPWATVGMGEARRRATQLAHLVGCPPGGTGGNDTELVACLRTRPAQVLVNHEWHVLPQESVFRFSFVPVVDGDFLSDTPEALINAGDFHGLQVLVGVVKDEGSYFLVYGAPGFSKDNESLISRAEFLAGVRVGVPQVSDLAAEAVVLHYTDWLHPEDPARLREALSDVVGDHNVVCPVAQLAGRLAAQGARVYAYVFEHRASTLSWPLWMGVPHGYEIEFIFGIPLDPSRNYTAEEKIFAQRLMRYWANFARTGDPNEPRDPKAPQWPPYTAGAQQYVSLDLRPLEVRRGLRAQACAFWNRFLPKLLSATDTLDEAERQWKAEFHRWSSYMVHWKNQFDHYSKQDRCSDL

SMILES	AC50 [1] [µM]	AC50 [2] [µM]	AC50 [3] [µM]	AC50 [4] [µM]	AC50 [5] [µM]	AC50 [6] [µM]	AC50 [7] [µM]	AC50 [8] [µM]	AC50 [9] [µM]	AC50 [10] [µM]	AC50 [11] [µM]	AC50 [12] [µM]	AC50 [13] [µM]	AC50 [14] [µM]
C[C@H](N[C@@H](CCc1ccccc1)C(=O)O)C(=O)N1Cc2ccccc2C[C@H]1C(=O)O	> 30	> 30	> 30	> 30	> 30	> 30	> 30	> 30	> 30	> 30	> 30	> 30	> 30	–
CC1(C)S[C@@H]2[C@H](/N=C/N3CCCCCC3)C(=O)N2[C@H]1C(=O)O [AMDINOCILLIN]	> 30	> 30	> 30	> 30	> 30	> 30	> 30	> 30	> 30	> 30	> 30	> 30	> 30	–
CC(=O)[C@]1(N)Cc2c(O)c3c(c(O)c2[C@@H](O[C@H]2C[C@H](O)[C@H](O)CO2)C1)C(=O)c1ccccc1C3=O [AMRUBICIN]	> 30	> 30	> 30	> 30	> 30	> 30	> 30	> 30	> 30	> 30	> 30	11.8	> 1	–
CC(=O)OC[C@H]1O[C@@H](n2ncc(=O)[nH]c2=O)[C@H](OC(C)=O)[C@@H]1OC(C)=O [AZARIBINE]	> 30	> 30	> 30	> 30	> 30	> 30	> 30	> 30	> 30	> 30	> 30	> 30	> 30	–
O=C(/C=C/c1cccc(S(=O)(=O)Nc2ccccc2)c1)NO [BELINOSTAT]	> 30	> 30	> 30	> 30	> 30	> 30	> 30	> 30	> 30	23.7	> 30	> 30	> 30	–
O=C(O)COCCN1CCN(C(c2ccccc2)c2ccc(Cl)cc2)CC1 (configuration not stated) [CETIRIZINE]	–	> 30	–	> 30	> 30	> 30	–	> 30	> 30	> 30	–	> 30	> 30	–
Cc1cn([C@H]2O[C@@H](CO)[C@H](O)[C@H]2F)c(=O)[nH]c1=O [CLEVUDINE]	> 30	> 30	> 30	> 30	> 30	> 30	> 30	> 30	> 30	> 30	> 30	> 30	> 30	–
CC(=O)[C@H]1CC[C@H]2[C@@H]3C=CC4=CC(=O)CC[C@@]4(C)[C@@H]3CC[C@]12C [DYDROGESTERONE]	> 30	> 30	> 30	> 30	> 30	> 30	> 30	> 30	> 30	> 30	> 30	> 30	25.1	–
CC(O)(P(=O)(O)O)P(=O)(O)O [ETIDRONIC ACID]	> 30	> 30	> 30	> 30	> 30	> 30	> 30	> 30	> 30	> 30	> 30	> 30	> 30	–
O=C(CCC/C=C\C[C@@H]1[C@@H](CC[C@@H](O)CCc2ccccc2)[C@H](O)C[C@@H]1O)OCCCCO[N+](=O)[O-] [LATANOPROSTENE BUNOD]	> 30	> 30	> 30	> 30	> 30	> 30	> 30	> 30	> 30	> 30	> 30	> 30	> 10	–
CCC[C@H](N[C@@H](C)C(=O)N1[C@H](C(=O)O)C[C@@H]2CCCC[C@@H]21)C(=O)OCC [PERINDOPRIL]	> 30	> 30	> 30	> 30	> 30	> 30	> 30	> 30	> 30	> 30	> 30	> 30	> 30	–
NNCCc1ccccc1 [PHENELZINE]	> 30	25.4	> 30	> 30	> 30	–	> 30	–	> 30	> 30	> 30	> 30	> 30	> 30
COc1cc(C)c2c(Oc3cccc(C(F)(F)F)c3)c(OC)cc(NC(C)CCCN)c2n1 (configuration not stated) [TAFENOQUINE]	> 30	> 30	> 30	> 30	> 30	11.3	> 30	> 30	> 30	> 30	5.98	> 3	> 3	–
COc1ccc2c(C(=S)N(C)CC(=O)O)cccc2c1C(F)(F)F [TOLRESTAT]	> 30	> 30	> 30	> 30	> 30	> 30	> 30	> 30	> 30	> 30	> 30	> 30	> 30	–
